Laboratory results reported in patent publication US10212958B2, “Method for producing stabilized whole wheat flour” (Intercontinental Great Brands LLC, priority 2011, dated 2019).
Several values for one entry are separate records, joined by “and”; a condition that tells them apart may be missing. Identical values can stand only once.

Assays:
[1] = tested on: Novozyme lipase from Aspergillus oryzae; experiment: Titrimetric lipase activity after 40 min pre-incubation of the enzyme in acid solution; assay type: biochemical
Description: The objective of this example was to test the effect of acid type and concentration on the lipase activity after pre-incubation of the enzyme for 40 minutes in acid solution. The following acids and levels were tested; (1) 5 ml lactic acid (8 g/1000 ml pH 2.57), add 20 μl lipase and 980 μl water inhibition 40 min; (2) 5 ml lactic acid (2 g/1000 ml pH 2.85), add 20 μl lipase and 980 μl water inhibition 40 min; (3) 5 ml lactic acid (16 g/1000 ml pH 2.48), add 20 μl lipase and 980 μl water inhibition 40 min; (4) 5 ml acetic acid (1 g/1000 ml pH 2.80), add 20 μl lipase and 980 μl water inhibition 40 min; (5) 5 ml HCL (4 g/1000 ml, pH 1.5), add 20 μl lipase and 980 μl water inhibition 40 min; (6) 5 ml green tea extract (8 g/1000 ml), add 20 μl lipase and 980 μl water inhibition 40 min.
Lipase (3.1.1.3) activity was adapted from the method set forth in “Worthington, Von.; The Worthington Manual; 1993 from Worthington Biochemical Corporation, 730 Vassar Avenue, Lakewood, N.J. 08701”.
H. Olive oil-gum Arabic emulsion: Prepare by dissolving 16.5 grams of gum Arabic in 130 ml of reagent grade water. Once the material is in solution, dilute to a final volume of 165 ml with reagent grade water. Add 20 ml of reagent grade olive oil and 15 grams crushed ice. Blend the mixture in a Waring blender at low speed for 3 min and filter the emulsion through glass wool. Prepare fresh daily. Enzyme:
The titration can be measured with a laboratory pH meter (a Corning pH meter 360i equipped with A-58905-66 High-performance combination pH electrode).
Blank rate determination: Adjust the pH of the reaction mixture to 8.0 and record the volume of titrant required to maintain the pH at 8.0 for 3-4 minutes after a constant rate is achieved. Determine the “blank rate” as the volume of titrant added per minute from the final linear portion of the curve.
Sample determination: at zero time, add appropriately diluted enzyme and readjust the pH to 8.0 if necessary. Record the volume of titrant required to maintain the pH at 8.0 for 5-6 minutes. Determine the “sample rate” as the volume of titrant added per minute from the linear portion of the curve.

[2] = Flour moisture (AACC Method 44-15A); assay type: physicochemical; conditions: coarse bran fraction before recombining
Description: Whole grain flour pH was measured in a 10% slurry (one part flour to 9 part water) using a Corning pH meter 360i equipped with an A-58905-66 High-performance combination pH electrode. Ash is determined according to AOAC official method 923.03 for measuring ash in flour. Flour moisture was determined according to AACC Method 44-15A.

[3] = Whole grain flour pH in 10% slurry; assay type: physicochemical
[4] = tested on: free fatty acids formed in whole grain flour; experiment: Free fatty acid content of whole grain flour, fresh and after accelerated storage (SPE, GC-FID); design: species or system wheat
Description: The objective of this example was to test the effect of acid tempering on the stability of whole grain flour during storage. The amount of free fatty acid formed was measured after flour storage in a sealed glass jar for 30 days under accelerated storage conditions of 92° F. […] The flours tested were: […] Results were compared to the amount of free fatty acids formed in untreated control flour. Whole grain flours were made with natural proportion of bran component and endosperm obtained from the flour mill. Whole grain flour ash content was used to confirm composition. Free fatty acid content of whole grain flour (fresh flour and 30 days aged flour) was determined according to the following method: Free fatty acid content of the flours was adapted from the method set forth in “Jong, C.; Badings, H. T.; Journal of High Resolution Chromatography; 1990; Determination of Free Fatty Acids in Milk and Cheese Procedures for Extraction, Clean up, and Capillary Gas Chromatography Analysis”. Lipid extracts, containing free fatty acids, are obtained from foods by extraction with acidified organic solvents. The anhydrous lipid extracts are passed through a weak anion exchange SPE cartridge to isolate the free fatty acids from the coextracted material, particularly neutral glycerides. • a. […] HP5890 Series II] • b. Autosampler compatible with the GC, [example: HP7673] • c. Software system capable of collecting chromatographic data, calculating statistics and tabulating results • d. Analytical balance with 0.0001 g resolution, 150 g capacity • e. Centrifuge capable of 3000 rpm (2050 rcf), with temperature control, (optional) • f. Polytron able to homogenize samples at 25000 rpm [example: Brinkmann Instruments, Polytron Kinematica AG Model PT 1300 D] • g. Vortex Mixer • h. Solvent Dispensers with inert plastic components [example: […] Column: […] SPE cartridges: […] Glass centrifuge test tubes with teflon lined screw caps, size: 16×125 mm • 4. Corex glass centrifuge tubes with teflon lined screw caps, 45 mL [example: COREX II No. 8422-A] • 5. Whatman Filter paper #1, 125 mm Diameter • 6. Pyrex brand filtering funnel, short stem • 7. Disposable Culture Tubes, borosilicate glass 16×150 mm [example: VWR Cat #47729-580] • 8. Glass vials with teflon lined screw caps, 4 mL. [example: Kimble Cat #60940A 4] • 9. Autosampler vials, borosilicate glass, crimp-top with teflon lined caps • 10. Amber borosilicate bottles with teflon lined screw cap, 100 mL • 11. Clear borosilicate bottle with teflon lined screw cap, 250 mL • 12. Graduated cylinders: 250 mL, 100 mL • 13. […] Glass volumetric pipettes class A 5, 2, 1 mL and graduated 10, 5 mL • 15. Disposable Pasteur pipettes: 53⁄4 and 9 inch • 16. Microspatula, spatula, and polypropylene sample transfer tubes Reagents/Solutions Reagents and Standards • 1. Ethanol-200 proof, anhydrous, 99.5%+, stored in amber glass [Aldrich #45, 983-6 or equivalent] • 2. Hexanes-GC grade [B&J #216-4 or equivalent] • 3. iso-Propanol-GC grade [B&J #323-4 or equivalent] • 4. Methyl-tert-butylether (MTBE)-GC grade [B&J #242-4 or equivalent] • 5. Methylene chloride-GC grade [B&J #299-4 or equivalent] • 6. […] Sulfuric acid-ACS reagent, 95.0-98.0% [Fisher Reagent ACS #A800-500 or equivalent] • 8. Water Type 1 [Fisher HPLC #W5-4 or equivalent] • 9. Diatomaceous Earth [Leco part #502-327 or equivalent] • 10. […] Standards (Standard Preparation See Appendix 13.1) • a. Internal Standard: 11:0; Surrogates: 9:0 and 13:0 • b. Matrix Spike (MS) standard working solution in ethanol: MS @ 50 µg/mL. This level may be appropriate for low to mid-level determinations. Generally the FFA levels vary tremendously within a given matrix. Consequently a spike solution of varying amounts per individual FFA may be necessary per matrix. • c. Calibration Standards in hexanes establish linear range: […] Comment: 18:1 and 18:2 calculations are based on 18:0 response factor. • d. […]

[5] = AACC 10-53 Cookie Test Baking; conditions: lactic acid 3000 ppm, green tea extract 7000 ppm
Source text: AACC 10-53 Cookie Test Baking Method was designed at Nabisco Biscuit Company for evaluation of ingredient functionality and predictive correlation between sensory and mechanical texture analysis (mechanical texture analysis by TAXT2 Texture analyzer 3 point bend or puncture test). The test is an improvement over AACC 10-52 Sugar-Snap Cookie Test Baking Method as confirmed by USDA Soft Wheat Quality Lab (Wooster Ohio). The AACC 10-53 test was adopted as the official method of the American Association of Cereal Chemists after collaborative testing by the Soft Wheat Quality Committee in 1992. The equipment, cookie dough composition, mixing procedure, baking procedure, measurement procedure, etc. used in the test are: The Standard Formulation AACC 10-53 Single Batch to Make 4 Test Cookies is: [table] [table] The general mixing procedure used is: The baketime is defined as the time required to produce a weight loss of 13.85% during baking of the formulation at 400 F. Portion four 60 g pieces of dough with minimum deformation and place on cookie sheet. Lay rolling pin across gauge bars of cookie sheet allowing weight of pin to compress the dough pieces without additional compressive force. Pick up rolling pin and place on gauge bars at end of cookie sheet, and roll only once away from you. Cut cookies with 60 mm cutter, and carefully lift scrap dough with small spatula. […]

[6] = Solvent Retention Capacity (SRC) of flour, adapted from AACC 56-10; assay type: physicochemical; design: Flour SRC sucrose / Flour SRC Sodium carbonate / Flour SRC Lactic acid / Flour SRC Water: unit not given here
Description: Solvent Retention Capacity (SRC) serves as a practical test to monitor the function of specific flour components, such as the amount of damaged starch. The SRC assay method used was adapted and modified from AACC method 56-10, according to the following procedure:
• 50 ml centrifuge tubes+caps • 5% weight sodium carbonate solvent • Centrifuge (IEC, Centra GP8, 269 rotor, 2130 rpm) Procedure: • 1. Weigh 50 ml centrifuge tubes+caps (for special tubes weight O-ring seals) • 2. Weigh and add 5.00 g of bran-germ mixture to each tube (determine moisture content of mixture) • 3. Add 25 g of solvent (pre-weighed solvent aliquots) to each tube • 4. Allow it to hydrate for 20 min, shaking every 5 min (5, 10, 15, 20) • 5. Centrifuge for 15 min at 1000×g • 6. Decant supernatant and drain 5 min at 45° angle and 5 min at 90° angle. • 7. Put cap back and weigh pellet

[7] = lactic acid 3000 ppm, green tea extract 7000 ppm
[8] = after 30 days at 92 F, flour at about pH=4.5

SMILES: CC(=O)O [Acetic acid, acetic acid]
- Lipase activity ([1]; 40 min acid pre-treat 0.005 g/15 ml, 0.006 M, pH 2.8): 5.33 Units/μl

SMILES: CC(O)C(=O)O (stereo not shown) [Lactic acid, lactic acid]
- coarse bran moisture [2]: 14.49
- break flour pH ([3]; break flour fraction before recombining): 4.88
- fine bran pH ([3]; fine bran fraction before recombining): 4.52
- Flour pH [3, 7]: 5.54 and 5.56
- Flour pH ([3]; soft red whole grain flour from treated wheat): 5.6
- Lipase activity ([1]; 40 min acid pre-treat 0.02 g/15 ml, 0.015 M, pH 2.85): 6.45 Units/μl
- Lipase activity ([1]; 40 min acid pre-treat 0.04 g/15 ml, 0.030 M, pH 2.57): 5.8 Units/μl
- Lipase activity ([1]; 40 min acid pre-treat 0.08 g/15 ml, 0.059 M, pH 2.48): 4.15 Units/μl
- Flour fatty acid formation ([4]; after 28 days at 92 F, about 9000 ppm lactic acid concentration and 4.5 pH): 1425 ppm
- Flour fatty acid formation [4, 8]: 1382 ppm
- Whole grain flour fatty acid content after storage ([4]; storage at 82 F, compared to control, Example 9): reduced compared to control
- FFA (ppm) 3 week at 28 C. ([4]; whole grain flour, lactic acid 3000 ppm, green tea extract 7000 ppm (dry weight/initial kernel weight)): 2628 ppm and 2364 ppm
- Cookie dough pH [5]: 7.65 and 7.52
- flour strength as measured by lactic acid SRC value ([6]; as a function of temper time and amount of lactic acid added, FIG. 7): did not decrease flour strength
- Flour SRC Lactic acid [6, 7]: 69.11 and 69.40
- Flour SRC Sodium carbonate [6, 7]: 76.58 and 78.67
- Flour SRC Water [6, 7]: 59.53 and 60.35
- Flour SRC sucrose [6, 7]: 95.77 and 94.23

SMILES: Cl [hydrochloric acid]
- Lipase activity ([1]; 40 min acid pre-treat 0.02 g/15 ml, 0.036 M, pH 1.5): 0 Units/μl
- Flour fatty acid formation [4, 8]: 746 ppm

SMILES: O=P(O)(O)O [phosphoric acid]
- Flour fatty acid formation [4, 8]: 1592 ppm
